In article PMC9021288 (Nature Communications, 2022):
pIC50: −log10 of the molar value. Entries after “also recorded” stand apart in the source; their conditions may differ.

How the values were obtained:
[1] = system: human peripheral blood lymphocytes; test: In vitro micronucleus screening assay
Experimental: (§1) Safety studies were performed by commercial services using their standard protocols. […] Genotoxicity was investigated using the Ames test (Bacterial Reverse Mutation Assay) (Covance Laboratories Ltd, North Yorkshire, England). In vitro mammalian cell micronucleus screening assay was studied in human peripheral blood lymphocytes (BioReliance Corporation, Rockville, USA). Cardiotoxicity was determined against the hERG channel in an automated patch clamp assay using the Qpatch or against the hNaV 1.5, hKV 1.5 and hCaV 1.2 using a manual patch-clamp technique (Metrion Biosciences, Cambridge, UK). Cytotoxicity in human and rat primary hepatocytes was assessed using the CellTiter-Blue assay performed by commercial services (KaLy-Cell). The viability of HepG2 cells was monitored through the addition of 1 mM resazurin. Following 6 h incubation, the relative amount of reduced resazurin was detected in a fluorimeter and compared to the assay controls (vehicle: 0.1% DMSO and positive control: 10 µM puromycin).

hERG channel = biological target: T1, hERG channel (Homo sapiens, UniProt Q12809); test: Automated patch clamp (Qpatch); format: cell-based
T1 construct: Metrion Biosciences
T1 sequence (Q12809 whole entry): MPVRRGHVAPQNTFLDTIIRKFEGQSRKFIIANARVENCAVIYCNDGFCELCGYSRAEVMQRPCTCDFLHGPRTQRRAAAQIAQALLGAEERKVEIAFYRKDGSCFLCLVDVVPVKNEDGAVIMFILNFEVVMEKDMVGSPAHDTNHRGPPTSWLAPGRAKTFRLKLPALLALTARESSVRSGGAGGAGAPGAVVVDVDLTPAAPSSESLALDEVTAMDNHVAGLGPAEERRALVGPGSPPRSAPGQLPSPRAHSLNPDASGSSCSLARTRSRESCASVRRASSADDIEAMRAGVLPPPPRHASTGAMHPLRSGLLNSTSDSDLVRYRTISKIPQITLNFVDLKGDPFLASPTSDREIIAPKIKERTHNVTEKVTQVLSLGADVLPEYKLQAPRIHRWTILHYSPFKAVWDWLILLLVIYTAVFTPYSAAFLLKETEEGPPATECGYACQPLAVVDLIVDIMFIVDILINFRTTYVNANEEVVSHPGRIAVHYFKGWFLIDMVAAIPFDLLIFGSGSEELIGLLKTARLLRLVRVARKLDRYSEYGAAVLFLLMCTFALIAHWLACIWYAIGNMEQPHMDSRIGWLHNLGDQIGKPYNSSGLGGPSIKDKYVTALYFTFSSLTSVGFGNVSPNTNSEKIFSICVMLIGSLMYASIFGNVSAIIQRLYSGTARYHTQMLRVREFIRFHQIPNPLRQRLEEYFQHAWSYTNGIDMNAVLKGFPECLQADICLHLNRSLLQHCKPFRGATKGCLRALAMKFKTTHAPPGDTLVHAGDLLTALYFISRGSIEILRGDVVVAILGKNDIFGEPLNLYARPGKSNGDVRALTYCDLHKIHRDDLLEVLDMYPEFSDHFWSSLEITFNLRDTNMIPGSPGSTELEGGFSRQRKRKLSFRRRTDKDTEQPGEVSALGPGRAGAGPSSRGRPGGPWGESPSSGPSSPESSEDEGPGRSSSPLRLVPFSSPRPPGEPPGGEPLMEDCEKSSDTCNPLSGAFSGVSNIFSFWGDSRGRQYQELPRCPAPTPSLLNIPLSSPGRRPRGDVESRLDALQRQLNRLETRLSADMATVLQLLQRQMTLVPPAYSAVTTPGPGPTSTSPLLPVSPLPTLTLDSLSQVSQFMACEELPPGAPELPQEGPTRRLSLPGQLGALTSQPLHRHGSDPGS
Experimental: as §1

[2] = 4-hour treatment + S9, 13.6 ug/ml
[3] = 4-hour treatment + S9, 19.4 ug/ml
[4] = 4-hour treatment + S9, 27.7 ug/ml
[5] = 4-hour treatment + S9, 39.5 ug/ml
[6] = 4-hour treatment + S9, 56.5 ug/ml
[7] = 4-hour treatment + S9, 80.7 ug/ml
[8] = 4-hour treatment + S9, 115 ug/ml
[9] = 4-hour treatment + S9, 165 ug/ml
[10] = 4-hour treatment + S9, 235 ug/ml
[11] = 4-hour treatment + S9, 336 ug/ml
[12] = 4-hour treatment + S9, 480 ug/ml
[13] = 4-hour treatment + S9, 686 ug/ml
[14] = 4-hour treatment + S9, 980 ug/ml
[15] = 4-hour treatment + S9, 1400 ug/ml
[16] = 4-hour treatment + S9, 2000 ug/ml
[17] = 4-hour treatment - S9, 13.6 ug/ml
[18] = 4-hour treatment - S9, 19.4 ug/ml
[19] = 4-hour treatment - S9, 27.7 ug/ml
[20] = 4-hour treatment - S9, 39.5 ug/ml
[21] = 4-hour treatment - S9, 56.5 ug/ml
[22] = 4-hour treatment - S9, 80.7 ug/ml
[23] = 4-hour treatment - S9, 115 ug/ml
[24] = 4-hour treatment - S9, 165 ug/ml
[25] = 4-hour treatment - S9, 235 ug/ml
[26] = 4-hour treatment - S9, 336 ug/ml
[27] = 4-hour treatment - S9, 480 ug/ml
[28] = 4-hour treatment - S9, 686 ug/ml
[29] = 4-hour treatment - S9, 980 ug/ml
[30] = 4-hour treatment - S9, 1400 ug/ml
[31] = 4-hour treatment - S9, 2000 ug/ml

C[C@@H](CNC(=O)[C@H](O)C(C)(C)CO)NC(=O)c1cc(F)c(F)cc1F [MMV693183]
CBPI [1, 2]: 1.808 | Cytotoxicity (%) [1, 2]: 12% | CBPI [1, 3]: 1.792 | Cytotoxicity (%) [1, 3]: 14% | CBPI [1, 4]: 1.76 | Cytotoxicity (%) [1, 4]: 17% | CBPI [1, 5]: 1.788 | Cytotoxicity (%) [1, 5]: 14% | CBPI [1, 6]: 1.84 | Cytotoxicity (%) [1, 6]: 9% | CBPI [1, 7]: 1.792 | Cytotoxicity (%) [1, 7]: 14% | CBPI [1, 8]: 1.86 | Cytotoxicity (%) [1, 8]: 7% | CBPI [1, 9]: 1.824 | Cytotoxicity (%) [1, 9]: 10% | CBPI [1, 10]: 1.772 | Cytotoxicity (%) [1, 10]: 16% | CBPI [1, 11]: 1.824 | Cytotoxicity (%) [1, 11]: 10% | CBPI [1, 12]: 1.848 | Cytotoxicity (%) [1, 12]: 8% | Percentage of MNBN Cells/Total BN Cells counted (%) [1, 12]: 0.4% | CBPI [1, 13]: 1.824 | Cytotoxicity (%) [1, 13]: 10% | CBPI [1, 14]: 1.84 | Cytotoxicity (%) [1, 14]: 9% | CBPI [1, 15]: 1.836 | Cytotoxicity (%) [1, 15]: 9% | Percentage of MNBN Cells/Total BN Cells counted (%) [1, 15]: 0.6% | CBPI [1, 16]: 1.388 | Cytotoxicity (%) [1, 16]: 58% | Percentage of MNBN Cells/Total BN Cells counted (%) [1, 16]: 0.4% | CBPI [1, 17]: 1.916 | Cytotoxicity (%) [1, 17]: 0% | CBPI [1, 18]: 1.86 | Cytotoxicity (%) [1, 18]: 6% | CBPI [1, 19]: 1.912 | Cytotoxicity (%) [1, 19]: 0% | CBPI [1, 20]: 1.832 | Cytotoxicity (%) [1, 20]: 9% | CBPI [1, 21]: 1.864 | Cytotoxicity (%) [1, 21]: 6% | CBPI [1, 22]: 1.876 | Cytotoxicity (%) [1, 22]: 4% | CBPI [1, 23]: 1.88 | Cytotoxicity (%) [1, 23]: 4% | CBPI [1, 24]: 1.804 | Cytotoxicity (%) [1, 24]: 12% | CBPI [1, 25]: 1.84 | Cytotoxicity (%) [1, 25]: 8% | CBPI [1, 26]: 1.792 | Cytotoxicity (%) [1, 26]: 14% | CBPI [1, 27]: 1.8 | Cytotoxicity (%) [1, 27]: 13% | Percentage of MNBN Cells/Total BN Cells counted (%) [1, 27]: 0.4% | CBPI [1, 28]: 1.832 | Cytotoxicity (%) [1, 28]: 9% | CBPI [1, 29]: 1.808 | Cytotoxicity (%) [1, 29]: 12% | CBPI [1, 30]: 1.704 | Cytotoxicity (%) [1, 30]: 23% | Percentage of MNBN Cells/Total BN Cells counted (%) [1, 30]: 0.4% | CBPI [1, 31]: 1.496 | Cytotoxicity (%) [1, 31]: 46% | Percentage of MNBN Cells/Total BN Cells counted (%) [1, 31]: 0.4% | micronucleus test result ([1]; up to 2000 µg/ml, with or without S-9): No induction of micronuclei; also recorded: negative | pIC50 (hERG channel): < 5.00
